{"source": "patent US4377592A", "about": "“Antiarrhythmic activity of cetiedil” (Innothera, priority 1979, dated 1983)", "key": {"rat aortic fragments [1]": {"system": "rat aortic fragments", "experiment": "Competitive antagonism of calcium dose/effect curve of contraction of rat aortic fragment", "type": "cell-based", "details": "competitive inhibition versus calcium", "description": "(§1) Fragments of aorta removed from rats are immersed in survival fluid in the presence of carbogene at 37° C. By modifying the ionic equilibrium of the survival medium, it was possible to study the effects of […] on contraction of the aortic fragments induced by depolarisation with potassium or calcium."}, "[2]": {"system": "chloroform-induced ventricular fibrillation", "experiment": "Chloroform-induced ventricular fibrillation in the mouse", "type": "in vivo", "from_the_text": "In this technique first described by LAWSON, J. W. in J. Pharm. Exp. Ther. 1968, 160, 22 and Vargaftig, B. B. et al in Eur. J. Pharmacol. 1969, 6, 49, the inhalation of chloroform vapour produced in the mouse apnea followed by ventricular fibrillation.\nThe mechanism of this technique remains unknown."}, "[3]": {"system": "isolated guinea-pig atrial", "experiment": "Stimulated isolated guinea pig atrial (technique of Dawes)", "type": "cell-based", "from_the_text": "(§2) The technique of DAWES (modified by ALLIES ET AL.) was used with the isolated guinea-pig atrial, and the technique of DUCHENE-MARULLAZ, J. Pharmacol. Paris, 1970, 1, 539, in the anaesthetized dog. This method is used to study the permeability of atrio-ventricular conduction, and thus more precisely conduction at the level of Tawara's nod."}, "[4]": {"system": "ventricular tachycardia induced by ouabaine", "experiment": "Ouabain induced ventricular tachycardia in the anesthetized guinea-pig", "type": "in vivo", "details": "5 and 10 mg/kg", "description": "This test is used to determine the dose of ouabain administered by slow infusion necessary to obtain the appearance of ventricular extrasystoles. The animal used was the guinea pig and the substances were administered intravenously."}, "in vivo": {"experiment": "in vivo", "details": "mouse, iv"}, "[5]": {"details": "cited from earlier work"}, "[6]": {"system": "polymorphous arrhythmias induced by adrenaline petrol-ether", "experiment": "Polymorphous arrhythmias induced in the anaesthetised guinea-pig by adrenaline and petrol ether", "type": "in vivo", "from_the_text": "Adrenaline in high dosage is a powerful arrhythmogenic stimulus to a myocardia induced by petrol ether, as recognized in the guinea-pig by LE MARECHAL J., Thesis Doct."}, "[7]": {"system": "atrio-ventricular conduction", "experiment": "Atrio-ventricular conduction in the anaesthetized dog (Duchene-Marullaz)", "type": "in vivo", "from_the_text": "as §2"}, "[8]": {"system": "ventricular fibrillation induced by CaCl2", "experiment": "Calcium (CaCl2) induced ventricular fibrillation in the anaesthetized rat, Malinow's technique", "type": "in vivo", "description": "According to MALINOW, M. R., et coll. Acta. Physiol Latino. Americ.\nUsing the anaesthetized rat, 200 mg/kg of CaCl2 was injected two minutes after the substances to be tested. The ECG was recorded continuously in lead II."}, "[9]": {"system": "rabbit cornea oculo-palpebral reflex", "type": "in vivo", "details": "for TOTAL DEGREE OF ANAESTHESIA FOR 60 minutes: rabbit cornea, total 13 no anaesthesia, 1300 complete", "from_the_text": "For the purpose of this study, the classical technique of REGNIER J., Thesis Doct. […] This consists of repeating touching of the rabbit cornea until an oculo-palpebral reflex is obtained. It should be noted that […], in common with the reference substances, was used in the form of the HCl Salt."}, "[10]": {"system": "ventricular tachycardia induced by Ouabain", "experiment": "Ouabain induced ventricular tachycardia in the dog (Lucchesi and Hardman)", "type": "in vivo", "details": "at the average effective dose", "from_the_text": "The method used is that of […] and HARDMAN, J. Pharmacol. Exp. Ther. 1961, 132, 372-381. Ventricular tachycardia was obtained by the sequential administration of Ouabain until a permanent ventricular tachycardia developed. Following observation of the effect of the substance, the reappearance of this ventricular tachycardia following the injection of insulin was confirmed, thereby showing the persistence within the heart of a toxic dose of Ouabain (Average dose of Ouabain 71.25 γ kg IV)."}, "rat aortic fragments [11]": {"system": "rat aortic fragments", "experiment": "Contraction of rat aorta fragment induced by potassium depolarisation", "type": "cell-based", "details": "for pD'2: pD'2 = pDx + log (x - 1)", "description": "as §1"}, "[12]": {"experiment": "Tolerance of normal healthy adult male subjects to cetiedil given by intravenous infusion", "type": "in vivo, human"}}, "note": "“And” between values parts separate entries of the source, which are not always exact repeats. Equal entries are not always repeated. Where two headings read alike, the source gives them in different places."}
{"smiles": "O=C(OCCN1CCCCCC1)C(c1ccsc1)C1CCCCC1", "note": "(stereo not drawn) [citrate monohydrate of α-cyclohexyl-3-thiopheneaceticacid 2-(hexahydro-1H-azepin-1-yl)ethyl ester]", "values": [{"measurement": "pA2", "setting": "rat aortic fragments [1]", "value": 6.27}, {"measurement": "activity relative to propranolol", "setting": "[2]; chloroform induced fibrillation in the mouse", "value": "ten times less powerful than propranolol"}, {"measurement": "ED50", "setting": "[2]; mouse, chloroform vapour inhalation, IP, read-out: ED50", "value": "~50", "unit": "mg/kg"}, {"measurement": "% DECREASE SPONTANEOUS RATE", "setting": "[3]; concentration 10^-5", "value": 26, "unit": "%"}, {"measurement": "% DECREASE m.f.s. (maximum frequency followed by the atrial)", "setting": "[3]; concentration 10^-5", "value": 27, "unit": "%"}, {"measurement": "% DECREASE SPONTANEOUS RATE", "setting": "[3]; concentration 10^-6", "value": 6, "unit": "%"}, {"measurement": "% DECREASE m.f.s. (maximum frequency followed by the atrial)", "setting": "[3]; concentration 10^-6", "value": 14, "unit": "%"}, {"measurement": "% DECREASE SPONTANEOUS RATE", "setting": "[3]; concentration 10^-7", "value": 9, "unit": "%"}, {"measurement": "% DECREASE m.f.s. (maximum frequency followed by the atrial)", "setting": "[3]; concentration 10^-7", "value": 6, "unit": "%"}, {"measurement": "negative bathmotropic effect", "setting": "[3]; concentration of 1.10^-6", "value": "identical to that of Quinidine and less than that of Propranolol"}, {"measurement": "threshold before the development of cardiac disturbances", "setting": "[4]", "value": "significant increase"}, {"measurement": "LD50", "setting": "in vivo", "value": 57, "unit": "mg/kg"}, {"measurement": "share of circulating radio-activity due to a metabolite", "setting": "[5]; 5 minutes after intravenous injection of 0.25 mg", "value": "half"}, {"measurement": "digestive absorbtion", "setting": "[5]; C14", "value": "excellent"}, {"measurement": "Rectal absorption", "setting": "[5]; in vivo", "value": "relatively low, and above all, very slow"}, {"measurement": "Biliary excretion", "setting": "[5]; individual with a biliary drain", "value": "no more than 11%"}, {"measurement": "terminal half-life of plasma radio-activity", "setting": "[5]; man, 0.25 mg intravenous, C14", "value": "approximately five"}, {"measurement": "terminal half-life of urinary excretion", "setting": "[5]; man, C14", "value": "~26", "unit": "h"}, {"measurement": "radio-activity excreted in the urines", "setting": "[5]; man, intact biliary circulation", "value": "approximately 65%"}, {"measurement": "plasma radioactivity following oral administration", "setting": "[5]; man, versus intravenous injection", "value": "markedly higher than after intravenous injection"}, {"measurement": "urinary excretion", "setting": "[5]; patient who had undergone surgery", "value": 42, "unit": "%"}, {"measurement": "radio-active transformation substance in urine", "setting": "[5]; urine passed 1 hour following the injection", "value": 100, "unit": "%"}, {"measurement": "ED50", "setting": "[6]; Cavia porcellus, ip, guinea-pig, urethane 1.2 g/kg IP, substance 5 minutes before intoxication, read-out: ED50 (dose decreasing by half the duration of the disturbances)", "value": "~1.2", "unit": "mg/kg"}, {"measurement": "index I = LD50 IV/ED50", "setting": "[6]; Table 1, adrenaline petrol-ether, guinea-pig ED50, mouse LD50", "value": 47.50}, {"measurement": "activity relative to the reference β-blocker", "setting": "[6]; guinea pig, adrenaline and petrol-ether", "value": "three times less active than the reference β-blocker"}, {"measurement": "effect on atrio-ventricular conduction after denervation", "setting": "[7]; anaesthetized dog, denervated", "value": "not altered by denervation"}, {"measurement": "effect on atrio-ventricular conduction", "setting": "[7]; anaesthetized dog, intact", "value": "significant depression which was proportional to the dose injected"}, {"measurement": "chronotropic effect", "setting": "[7]; dog", "value": "absence of any significant negative chronotropic effects"}, {"measurement": "effects on contractile force of the myocardia", "setting": "[7]; dog, doses of 2.5 and 5 mg/kg", "value": "slight"}, {"measurement": "index LD50/AD50 (ventricular fibrillation)", "setting": "[8]; Table 2", "value": "18,69"}, {"measurement": "index LD50/AD50 (death)", "setting": "[8]; Table 3", "value": 16.29}, {"measurement": "AD 50 protection against ventricular fibrillation", "setting": "[8]; anaesthetized rat, CaCl2 200 mg/kg IV two minutes after substance", "value": "3,50 mg/kg/IV"}, {"measurement": "ED50", "setting": "[8]; anaesthetized rat, CaCl2 200 mg/kg IV two minutes after substance, read-out: AD 50 protection against ventricular fibrillation", "value": 3.5, "unit": "mg/kg"}, {"measurement": "local anaesthetic effects relative to cocaine", "setting": "[9]; rabbit", "value": "twice as great as those of cocaine"}, {"measurement": "TOTAL DEGREE OF ANAESTHESIA FOR 60 minutes", "setting": "[9]; 0.25 g./100, HCl salt", "value": 393.2}, {"measurement": "TOTAL DEGREE OF ANAESTHESIA FOR 60 minutes", "setting": "[9]; 0.50 g./100, HCl salt", "value": 798.8}, {"measurement": "duration of complete local anaesthesia", "setting": "[9]; rabbit, local instillation, concentration of 0.5%", "value": 15, "unit": "min"}, {"measurement": "duration of return to sinus rhythm", "setting": "[10]", "value": "more than 30 min"}, {"measurement": "IC50", "setting": "rat aortic fragments [11]; in the presence of 1.26 mM of calcium, read-out: concentration reducing by half the force of contraction", "value": 6, "unit": "µM"}, {"measurement": "pD'2 (mean)", "setting": "rat aortic fragments [11]; mean ± SD, potassium depolarisation", "value": "5.23 ± 0.05 and 5.23"}, {"measurement": "x", "setting": "rat aortic fragments [11]; single experiment, cetiedil concentration 1 (pDx 6.00)", "value": 1.16}, {"measurement": "pD'2", "setting": "rat aortic fragments [11]; single experiment, cetiedil concentration 1", "value": 5.20}, {"measurement": "x", "setting": "rat aortic fragments [11]; single experiments, cetiedil concentration 5 (pDx 5.30)", "value": "1.50 and 2.17"}, {"measurement": "pD'2", "setting": "rat aortic fragments [11]; single experiments, cetiedil concentration 5", "value": "5.00 and 5.37"}, {"measurement": "x", "setting": "rat aortic fragments [11]; single experiments, cetiedil concentration 10 (pDx 5.00)", "value": "2.78 and 3.24 and 2.70"}, {"measurement": "pD'2", "setting": "rat aortic fragments [11]; single experiments, cetiedil concentration 10", "value": "5.25 and 5.35 and 5.23"}, {"measurement": "overall safety conclusion", "setting": "[12]; 0.359 mg/kg infused 9 times over a 10 day-period", "value": "safe drug"}, {"measurement": "abnormalities in electrocardiograms, blood chemistry, hematologic profiles, urine analyses", "setting": "[12]; 10 volunteers, 0.359 mg/kg, 9 infusions over 10 days", "value": "no significant abnormalities"}, {"measurement": "subjects with doubtful elevation in SGOT value", "setting": "[12]; after completion of study-period, of 10", "value": 2, "unit": "subjects"}, {"measurement": "average duration of side effects after completion of infusion", "setting": "[12]; after the first infusion", "value": 72.9, "unit": "min"}, {"measurement": "subjects complaining of side effects", "setting": "[12]; after the first infusion", "value": 7, "unit": "subjects"}, {"measurement": "duration of side effects", "setting": "[12]; after the ninth infusion", "value": 15, "unit": "min"}, {"measurement": "subjects complaining of side effects", "setting": "[12]; after the ninth infusion", "value": 3, "unit": "subjects"}, {"measurement": "K+ level", "setting": "[12]; another subject, after completing the study", "value": "slight reduction"}, {"measurement": "Ca++ level", "setting": "[12]; one subject, after completing the study", "value": "minimal elevation"}, {"measurement": "systemic blood pressure", "setting": "[12]; one to four hours after infusion", "value": "slightly decreased"}, {"measurement": "Pulse rate", "setting": "[12]; usually one hour after the infusion", "value": "slightly reduced"}]}
